Data set [1] has as its system human pulmonary epithelium cell line BEAS-2B. The data set is described as follows: ROS measured as fluorescence emission of intracellular probe DCF-DA after LPS or Poly I:C stimulus. As to conditions: stimulus LPS or PIC, PC and PEA 1 µM for 48h, Figure 1. It is filed as cell-based. As to the method:
(§1) The cells were treated with PC and PEA 1 µM for 48h. The ROS (which are powerful oxidants) were measured as fluorescence emission of the intracellular probe DCF-DA (dichlorofluorescein diacetate). The toxicity was measured as release of an intracellular enzyme (lactate dehydrogenase LDH) in the extracellular medium; the release is proportional to the toxicity and is measured with a spectrophotometer.

The test system of data set [2] is interleukin 8 (IL-8) transcript. The data set is described as follows: IL-8 transcript by real-time PCR after inflammatory stimulus. It is filed as cell-based, human. As to conditions: BEAS-2B, bacterial (LPS) or viral (PIC) stimulus, PC and PEA 1 µM for 24h, Figure 2. On the procedure: The cells were treated with PC and PEA 1 µM for 24h. The interleukin 8 (IL-8) transcript was measured by means of real-time PCR.
A general note: In qPCR the cycle at which signal appears reflects the starting amount.

Data set [3] relates to human pulmonary epithelium BEAS-2B. The data set can be described thus: Cell proliferation by crystal violet colouring. It is filed as cell-based. As to conditions: tested in the range 10 nM - 1 µM. As to the method:
(§2) In a model of human pulmonary epithelium BEAS-2B (ATCC - CRL-9609), PC and PEA were tested in the range 10 nM - 1 µM.

For data set [4] the test system is unchanged. The data set is described as follows: MTT test for cytotoxicity. It is filed as cell-based. As to conditions: tested in the range 10 nM - 1 µM. On the procedure: as §2
The target in data set [5] is T1, COX-2 (human) (Homo sapiens, UniProt P35354).
T1 construct: purchased Cayman Chemical 701080
T1 sequence (P35354 18-604): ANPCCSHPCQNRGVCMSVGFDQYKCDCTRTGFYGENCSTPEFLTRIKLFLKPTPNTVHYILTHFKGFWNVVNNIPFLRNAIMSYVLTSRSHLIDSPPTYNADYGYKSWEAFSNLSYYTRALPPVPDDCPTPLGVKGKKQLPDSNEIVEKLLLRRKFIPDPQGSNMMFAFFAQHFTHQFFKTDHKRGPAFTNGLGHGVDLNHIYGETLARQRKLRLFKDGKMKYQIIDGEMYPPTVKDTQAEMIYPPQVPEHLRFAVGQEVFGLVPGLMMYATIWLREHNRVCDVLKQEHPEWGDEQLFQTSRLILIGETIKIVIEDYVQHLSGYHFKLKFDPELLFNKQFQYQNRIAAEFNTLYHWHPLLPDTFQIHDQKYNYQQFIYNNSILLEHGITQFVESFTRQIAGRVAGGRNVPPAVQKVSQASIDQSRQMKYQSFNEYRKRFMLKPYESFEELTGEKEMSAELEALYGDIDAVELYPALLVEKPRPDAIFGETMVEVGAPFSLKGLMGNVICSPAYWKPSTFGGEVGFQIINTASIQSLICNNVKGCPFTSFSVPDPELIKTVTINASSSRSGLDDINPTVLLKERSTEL
The data set can be described thus: COX-2 (human) Inhibitor Screening Assay Kit, in vitro ELISA method. In kind it is biochemical. As to conditions: Cayman Chemical # 701080. From the text:
Measurement of the IC50 in an in vitro test (ELISA method - COX-2 (human) Inhibitor Screening Assay Kit, # 701080, Cayman Chemical) gave the following results.

Data set [6] concerns transcripts for subunits 2 and 4 of complex IV of the mitochondrial respiratory chain (COX2 and COX4) and two subunits of the ATP synthase mitochondrial enzyme …. The data set can be described thus: Mitochondrial respiratory chain and ATP synthase transcripts by real-time PCR. In kind it is cell-based, human. As to conditions: BEAS-2B, bacterial (LPS) or viral (PIC) stimulus, PC and PEA 1 µM for 24h, Figure 3. On the procedure: The cells were treated with PC and PEA 1 µM for 24h. The transcripts for subunits 2 and 4 of complex IV of the mitochondrial respiratory chain (COX2 and COX4) and the transcripts for two subunits of the ATP synthase mitochondrial enzyme (ATP mit and ATP n) were measured by means of real-time PCR.

Data set [7] deals with human pulmonary epithelium cell line BEAS-2B. The data set can be described thus: Toxicity as lactate dehydrogenase (LDH) release after LPS or Poly I:C stimulus. It is filed as cell-based. As to conditions: stimulus LPS or PIC, PC and PEA 1 µM for 48h, Figure 1. As to the method:
as §1

As to `CCCCCCCCCCCCCCCC(=O)NCCO` [PEA, palmitoylethanolamide], the “oxidative stress (ROS, DCF-DA fluorescence)” value in data set [1] was “protect from oxidative stress”. In data set [2], the “production of inflammatory cytokines (IL-8 transcript)” value was “reduce the production of inflammatory cytokines”. In addition, in data set [3], the “effect on cell growth (proliferation, crystal violet)” value is recorded as “no effect on cell growth”. Moreover, the “toxicity (MTT test)” value in data set [4] is on record as “absence of toxicity”. Moreover, the IC50 (as a rule, the concentration needed to halve the response being measured) in data set [5] stood at 575 nM. For the same compound, the “activation of the mitochondrial respiratory burst (COX2, COX4, ATP mit, ATP n transcripts)” value in data set [6] is listed as “reduce activation of the mitochondrial respiratory burst”. In addition, the “toxicity (LDH release in the extracellular medium)” value in data set [7] is “protect from oxidative stress and toxicity”.

The values are drawn from EP3991726A1, “ANTI-INFLAMMATORY COMPOSITION COMPRISING PALMITOYLETHANOLAMIDE AND PHYCOCYANIN” (priority 2020, dated 2022).
